Experimental data taken from patent publication US20080120039A1, “HORMONE AND DRUG CONCENTRATIONS IN THE PORTAL VEIN AND HEPATIC SINUSOIDS” (Entelos, Inc., priority 2005, published 2008).
Read-outs that look alike come from different tables or passages of the source.

Assays:
[1] = Glucagon infusions with somatostatin; metabolic clearance of glucagon; format: in vivo, human
Source text: FIGS. 3A and 3B provide graphs of plasma glucagon concentrations during different glucagon infusion rates in human subjects. FIG. 3A illustrates data from studies that report lower glucagon concentrations during glucagon infusions (Chhibber, et al. Metabolism 49(1):39-46 (2000) and Matsuda, et al. Metabolism 51(9):1111-1119 (2002)) and FIG. 3B illustrates data from studies that report higher glucagon concentrations during glucagon infusions (Nielsen, et al., Diabetes 46(12):2007-2016 (1997) and Andrews, et al., J. Clin. Endocrinol. Metab. 88(1):285-291 (2003)). The equation for the regression line in FIG. 3A is y=0.41x+60.15 with r^2=0.96 and the regression line in FIG. 3B is y=x+69.5 with r=0.97.
Different research groups report considerably different glucagon concentrations in response to plasma glucagon infusions. In FIG. 3A, the regression line yields m=0.00041 min/ml, whereas for the regression line for 3B yields m=0.001 min/ml. These differences lead to considerable differences in predicted portal glucagon concentrations in both fasted and fed conditions, as described below. The MCR for glucagon has been reported to be between 7-14 ml/kg/min; taking the reciprocal of the MCR for a 70 kg individual gives m=0.001-0.002 min/ml. As a result of the variability in the reported measurements for this parameter, two different possibilities are considered in the analyses: one where m=0.00041 and another where m=0.001 min/ml.

[2] = rats; cited from earlier work
[3] = dogs; cited from earlier work
[4] = reported; cited from earlier work
[5] = cited from earlier work
[6] = sheep; cited from earlier work
[7] = pigs; cited from earlier work
[8] = cited from earlier work; remark: listed apart in the source
[9] = healthy patients; cited from earlier work

Row | Substance | m as reciprocal of reported MCR ([1]; for a 70 kg individual) [min/mL] | m (slope of plasma glucagon concentration versus infusion rate) ([1]; studies with higher glucagon concentrations (FIG. 3B)) | m (slope of plasma glucagon concentration versus infusion rate) ([1]; studies with lower glucagon concentrations (FIG. 3A), about twice the somatostatin rate) | hepatic glucagon extraction, f [2] | hepatic glucagon extraction, f [3] | MCR for glucagon [4] [L/h/kg] | hepatic glucagon extraction in humans ([5]; Felig et al.) | portal glucagon concentration relative to systemic plasma ([5]; reported in the literature) | hepatic glucagon extraction, f [6] | hepatic glucagon extraction, f [7] | fractional extraction of insulin by the liver, f ([8]; most estimates) | fractional extraction of insulin by the liver, f ([8]; portal catheterization study and mathematical models based on insulin and c-peptide concentrations) | fractional extraction of insulin by the liver, f ([8]; splanchnic balance studies) | m as reciprocal of reported MCR (for a 70 kg patient) [min/mL] | m (slope of steady-state systemic plasma concentration versus exogenous infusion rate; reciprocal of MCR) (insulin infusions with somatostatin, healthy individuals, studies of FIG. 2, 70 kg individual) | metabolic clearance rate (MCR) of insulin [9] [L/h/kg]
1 | glucagon | 0.001 to 0.002 | 0.001 min/ml and ≈ 0.001 min/ml | 0.00041 min/ml and ≈ 0.0004 min/ml | ≈ 0.5 | ≈ 0.2 | 0.42 to 0.84 | little or no hepatic glucagon extraction | 1.3-3.0 times higher | ≈ 0.07 | ≈ 0.1 |  |  |  |  |  | 
2 | insulin |  |  |  |  |  |  |  |  |  |  | 0.5-0.7 | ≈ 0.5 | 0.7 | 0.0005 to 0.001 | 0.0007 min/ml and approximately 0.0007 min/ml | 0.78 to 1.62
